Patent US8415393B2, “Anti-bacterial drug targeting of genome maintenance interfaces” (Wisconsin Alumni Research Foundation, priority 2007, dated 2013)
≈ marks a conversion by molar mass, not a printed value. Read-outs that look alike come from different tables or passages of the source.

Assays:
[1] = tested on: Staphylococcus aureus 12598; assay: Bacterial growth assay in LB liquid media, S. aureus; format: cell-based; details: Staphylococcus aureus, 12598
Protocol: (§1) 100 μL of LB containing E. coli 1655, E. coli 4213, or S. aureus at A ˜0.05 OD 600 was aliquoted in 96 well plates. One μL of compound in DMSO was added to final concentrations given. Plates were incubated at 37° C. with shaking at 250 RPM. Rate of growth was calculated by determining the average change in OD/hour that took place between hours 3 and 7 (log growth phase). The graphs shown herein are plots of this bacterial growth rate (change in OD/h) against inhibitor concentration in μM.

[2] = tested on: E. coli 4213 (imp4213, compromised cell wall); assay: microbe, parasite or virus in culture; format: cell-based; details: Escherichia coli
Protocol: The compromised cell wall allows the chemicals to pass through it more readily.
as §1

B. subtilis = assay: Growth on solid media (MIC; agar plates with compound), B. subtilis; format: cell-based, Bacillus subtilis; details: for MIC / growth on agar plates: Bacillus subtilis; for MIC: solid media, B. subtilis; for Bactericidal for B. subtilis: Table 3 info column; for growth on agar plates: 100 μM compound in agar
Protocol: (§2) A number of the tested candidate compounds had profound inhibitory effects on bacterial growth. In addition, it was discovered that the identified drug compounds can slow the growth of a number of other Gram-positive bacterial species. For example, the growth of Bacillus subtilis and Enterococcus faecalis was inhibited when these bacteria were grown on agar plates containing 100 μM of either compound 9 or compound 10.

red blood cells = assay: In vitro hemolysis; format: cell-based; details: for % hemolysis at given concentration: 1 hour; for Hemolysis: Table 3, minimum concentration necessary to lyse red blood cells
Protocol: The identified small molecules were incubated with red blood cells to see what percentage of cells would lyse after 1 hour. Estimated hemolysis data are due to problem with reading absorbance, when the compound absorbs at the same wavelength as heme or if the compound precipitates. In such instances it is difficult to quantitate the absorbance readings; however, visual determination of how many cells have lysed can then be performed, which provides an estimate of cell lysis.

[3] = tested on: HT-29 (human colorectal adenocarcinoma) cells; assay: Mammalian cell toxicity, CellTiter-Glo cell viability assay; format: cell-based
Protocol: The toxicity of the identified antimicrobial candidate compounds was tested using human colorectal adenocarcinoma cells in vitro. […] The mammalian cells were tested using a CellTiter-Glo cell viability assay (Promega, Madison, Wis.).

[4] = biological target: Exonuclease I/SSB-Ct complex (Escherichia coli, UniProt P04995); assay: Fluorescence polarization competition: inhibition of fluorescein-SSB C-terminal peptide binding to Exonuclease I (HTS and Ki determination)
Sequence of Exonuclease I/SSB-Ct complex (P04995 whole entry, one chain of several): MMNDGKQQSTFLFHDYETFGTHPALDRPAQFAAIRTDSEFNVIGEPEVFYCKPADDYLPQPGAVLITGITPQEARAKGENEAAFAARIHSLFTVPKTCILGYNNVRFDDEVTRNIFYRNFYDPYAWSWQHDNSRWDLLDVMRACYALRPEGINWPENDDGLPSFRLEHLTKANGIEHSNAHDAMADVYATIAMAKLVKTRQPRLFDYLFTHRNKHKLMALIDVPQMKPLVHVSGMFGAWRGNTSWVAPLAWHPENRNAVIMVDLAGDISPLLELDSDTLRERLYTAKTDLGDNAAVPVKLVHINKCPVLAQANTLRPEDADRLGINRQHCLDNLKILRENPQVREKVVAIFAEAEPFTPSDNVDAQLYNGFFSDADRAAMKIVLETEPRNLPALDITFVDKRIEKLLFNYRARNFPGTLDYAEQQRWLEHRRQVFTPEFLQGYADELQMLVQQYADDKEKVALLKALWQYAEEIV
Protocol: Peptide binding assays were performed in solution, using the peptides from above, and Exonuclease I, in the absence or presence of various compounds. Different amounts of Exonuclease I (ExoI) were used in the peptide binding assays. […] Fluorescence polarization (FP) was measured at 25° C. in triplicate; the average FP value was plotted with standard deviation of the mean shown as error.
Concentrated Exonuclease I was dialyzed overnight into 2 liters dilution buffer (DB) (20 mM Tris pH 8.0 HCl, 100 mM NaCl, 1 mM MgCl2, and 1 mM Beta-Mercaptoethanol). […] After sitting at room temperature for 5 min, a liquid handling system was used to aliquot this solution into 384 well plates providing 30 microliters/well. One microliter of 1 mM compound was then added. The screened compounds were obtained from the ChemBridge DIVERSet library (ChemBridge Corporation, San Diego, Calif.), from the Maybridge HitFinder library (Thermo Fisher Scientific, Waltham, Mass.), from the ChemDiv library (Chemical Diversity Labs, San Diego, Calif.), or from the Known Bioactive Library—KBA01.
The FP (fluorescence polarization) values for each well were read using a (plate reader) 5 minutes after compound addition.
Increasing amounts of compound were titrated into peptide protein mixture until FP values were lowered to values given by only fluorescently labeled peptide alone. Ki values were determined using the Ki calculator for fluorescence-based competitive binding assays of Prof. Shaomeng Wang, University of Michigan (Nikolovska-Coleska et al., 2004, Anal. Biochem. 332: 261-273).

E. coli (imp4213) = assay: MIC on solid media, E. coli; format: cell-based; details: Escherichia coli, read-out: MIC (E. coli)
Enterococcus faecalis = assay: Growth on agar plates containing compound, Enterococcus faecalis; format: cell-based; details: 100 μM compound in agar
Protocol: as §2

Deinococcus radiodurans = assay: Growth on agar plates containing compound, Deinococcus radiodurans; format: cell-based; details: tested in a similar manner (100 μM in agar)
Protocol: as §2

[5] = biological target: Topoisomerase III (TopoIII)/C-terminal tail of E. coli SSB (Escherichia coli, UniProt P14294); assay: Topoisomerase III peptide binding (fluorescence anisotropy); details: 100 μM final concentration, 1% DMSO
Sequence of Topoisomerase III (TopoIII)/C-terminal tail of E. coli SSB (P14294 whole entry): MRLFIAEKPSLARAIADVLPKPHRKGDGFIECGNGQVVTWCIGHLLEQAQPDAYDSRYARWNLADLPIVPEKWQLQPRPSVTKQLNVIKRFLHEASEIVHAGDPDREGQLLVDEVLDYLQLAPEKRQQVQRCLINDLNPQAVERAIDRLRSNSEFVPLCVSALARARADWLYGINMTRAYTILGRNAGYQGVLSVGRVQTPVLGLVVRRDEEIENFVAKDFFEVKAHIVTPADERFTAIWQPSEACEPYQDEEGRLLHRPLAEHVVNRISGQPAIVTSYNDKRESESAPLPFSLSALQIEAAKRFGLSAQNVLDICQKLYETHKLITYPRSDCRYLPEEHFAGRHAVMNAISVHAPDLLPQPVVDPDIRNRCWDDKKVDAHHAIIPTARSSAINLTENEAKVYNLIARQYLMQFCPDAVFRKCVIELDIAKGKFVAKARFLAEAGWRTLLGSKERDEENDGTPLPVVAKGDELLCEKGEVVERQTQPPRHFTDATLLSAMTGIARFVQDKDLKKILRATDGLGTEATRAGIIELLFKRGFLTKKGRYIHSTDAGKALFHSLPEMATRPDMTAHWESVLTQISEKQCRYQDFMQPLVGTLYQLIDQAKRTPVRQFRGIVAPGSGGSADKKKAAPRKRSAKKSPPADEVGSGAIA
Protocol: TopoIII was titrated into 10 nM fluorescent peptide, as described above for the ExoI binding assays. The buffer conditions for this binding assay were: 300 mM NaCl, 20 mM Tris pH 8.0, 10% Glycerol, 1 mM BME (Beta-Mercaptoethanol), and 1% DMSO. Concentrations of TopoIII used are given on the graph in FIG. 24. Changes in anisotropy upon binding were read using PanVera Beacon 2000 FP.
Either unlabeled peptide or various compounds were then added to a final concentration of 100 μM. These compounds and unlabeled peptide were dissolved in DMSO and their addition brought the final concentration of DMSO to 1%.

[6] = Table 3, reduce growth 50% in liquid media, unit not given (Table 5 gives μM), read-out: IC(50) S. aureus
[7] = Table 5, read-out: IC50 μM inhibitor, inhibition of S. aureus growth
[8] = compound listing, bacterial growth in LB, read-out: IC50 Staphylococcus aureus
[9] = read-out: IC50 μM inhibitor, inhibition of E. coli growth
[10] = read-out: IC(50) E. coli imp4213
[11] = HT-29, Table 3, unit inferred, read-out: IC(50) Human cell line
[12] = HT-29 cells, CellTiter-Glo, read-out: IC50

Compound	IC50 [1, 6]	IC50 [1, 7]	IC50 [1, 8]	IC50 [2, 9]	IC50 ([2]; read-out: IC50 E. coli 4213)	IC50 [2, 10]	MIC (B. subtilis)	Bactericidal for B. subtilis (B. subtilis)	Hemolysis (red blood cells)	IC50 [3, 11]	IC50 [3, 12]	Ki [4]	Ki ([4]; Ki estimates, Table 2)	Ki ([4]; Ki, compound listing)	MIC (E. coli (imp4213))	% hemolysis at given concentration (red blood cells; 400 μM)	growth on agar plates (Enterococcus faecalis)	growth on agar plates (Deinococcus radiodurans)	growth on agar plates (B. subtilis)	also measured
O=C(O)C(Cc1ccccc1)N1C(=O)/C(=C/c2cccc(Br)c2)SC1=S (centres unmarked) [Compound 3, 2-[5-(3-bromobenzylidene)-4-oxo-2-thioxo-1,3-thiazolidin-3-yl]-3-phenylpropanoic acid]	9 µM	9 µM	10 µM	6 µM	5.5 µM	6 µM	3.6 µg/mL (≈ 8.03 µM)	Compound 3; also called BOTP. Came from original Maybridge HTS collection. Bactericidal for B. subtilis	~100 µM	12 µM	> 100 µM	2.5 µM	2.5 µM	~2.5 µM	3.6 µg/mL (≈ 8.03 µM)					% hemolysis at given concentration (red blood cells; 100 μM): 20% 100
CC(/C=C1\SC(=S)N(C(C(=O)O)c2ccccc2)C1=O)=C\c1ccccc1 (centres unmarked) [Compound 8, [5-(2-methyl-3-phenyl-2-propen-1-ylidene)-4-oxo-2-thioxo-1,3-thiazolidin-3-yl](phenyl)acetic acid]	29 µM	30 µM	29 µM	11 µM	11 µM	11 µM	6.3 µg/mL (≈ 15.9 µM)	Compound 8; also called MPTA. Came from original Maybridge HTS collection. Bactericidal for B. subtilis	~200 µM	> 100 µM	> 100 µM	4 µM	4 µM	~4 µM	4 µg/mL (≈ 10.1 µM)	estimated 90% 400 uM				% hemolysis at given concentration (red blood cells; 200 μM): estimated 0% 200
CC(C)(C)C1=NN(c2nc3ccc(Cl)cc3s2)C(=O)C1 [Compound 9, 3-(tert-butyl)-1-(6-chloro-1,3-benzothiazol-2-yl)-4,5-dihydro-1H-pyrazol-5-one]	6 µM	6 µM	5.5 µM	6 µM	6 µM	6 µM	6.2 µg/mL (≈ 20.1 µM)		>800 µM	> 100 µM	38 µM	0.8 µM	2.2 µM	~0.773 µM	9 µg/mL (≈ 29.2 µM)		inhibited	inhibited	inhibited	% hemolysis at given concentration (red blood cells; >800 μM): 0% >800
COc1ccc(Nc2cc(C(F)(F)F)ccc2Cl)c(C(=O)O)c1 [Compound 10, 2-[2-chloro-5-(trifluoromethyl)anilino]-5-methoxybenzoic acid]	20 µM	20 µM	18 µM	30 µM	30 µM	30 µM	11.1 µg/mL (≈ 32.1 µM)		~800 µM	> 100 µM	60 µM	0.1 µM	0.35 µM	~0.125 µM	12.3 µg/mL (≈ 35.6 µM)	0% 400	inhibited	inhibited	inhibited	% hemolysis at given concentration (red blood cells; 800 μM): 85% at 800 μM; inhibition of fluorescent peptide binding to TopoIII (anisotropy) [5]: inhibit binding
